# Structures can show the parent of a compound that is named as a salt.
# Test system: not given
# Assay: not given
# Conditions: not given
row,SMILES,melting point
1,"COc1ccc2cc(C(=O)O)ccc2c1CNCc1ccc(OC(F)(F)F)cc1 (as salt: salt) [Example 1, 6-Methoxy-5-({[4-(trifluoromethoxy)benzyl]amino}methyl)-2-naphthoic acid]",235 to 237 °C
2,"COc1ccc2cc(C(=O)O)ccc2c1CNCc1ccc(N(C)C)cc1 (as salt: salt) [Example 4, 5-({[4-(Dimethylamino)benzyl]amino}methyl)-6-methoxy-2-naphthoic acid]",> 215 °C (dec.)
3,"COc1ccc2cc(C(=O)O)ccc2c1CNCc1ccc(S(N)(=O)=O)cc1 (as salt: salt) [Example 3, 5-({[4-(Aminosulfonyl)benzyl]amino}methyl)-6-methoxy-2-naphthoic acid]",283 to 285 °C (dec.)
4,"COc1ccc2cc(C(=O)O)ccc2c1CNCc1ccc(F)cc1 (as salt: salt) [Example 2, 5-{[(4-Fluorobenzyl)amino]methyl)-6-methoxy-2-naphthoic acid]",268 to 270 °C (dec.)
5,"O=C(O)COc1ccc2cc(C(=O)O)ccc2c1CNCc1ccc(OC(F)(F)F)cc1 [Example 5, 6-(Carboxymethoxy)-5-({[4-(trifluoromethoxy)benzyl]amino}methyl)-2-naphthoic acid]",> 266 °C (dec.)

# Molecular target: T1, human-derived recombinant PTPase-1B (hPTP-1B) (Homo sapiens, UniProt P18031)
# T1 sequence (P18031 1-435): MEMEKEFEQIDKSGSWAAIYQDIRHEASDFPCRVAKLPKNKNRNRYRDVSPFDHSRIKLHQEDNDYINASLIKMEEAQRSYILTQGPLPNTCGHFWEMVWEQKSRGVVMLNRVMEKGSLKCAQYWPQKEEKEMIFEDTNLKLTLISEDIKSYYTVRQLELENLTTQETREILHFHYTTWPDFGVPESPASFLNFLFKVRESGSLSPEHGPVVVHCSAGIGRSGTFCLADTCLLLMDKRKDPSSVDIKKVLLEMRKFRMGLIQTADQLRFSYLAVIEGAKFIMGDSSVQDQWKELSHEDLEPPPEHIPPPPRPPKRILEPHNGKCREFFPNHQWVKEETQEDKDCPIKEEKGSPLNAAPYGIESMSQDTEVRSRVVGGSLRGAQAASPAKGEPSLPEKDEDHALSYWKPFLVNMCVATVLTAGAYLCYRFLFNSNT
# Assay: PTP-1B inhibition assay (DIFMUP fluorescence kinetic assay)
# Assay type: biochemical
# Conditions: inhibitor at 40 μM; 20 μM DIFMUP; 1 nM enzyme; calculated from average velocity Va vs control
# Method: Measurement of PTPase activity: Compounds are assayed in an enzyme activity-based assay. PTP-1B is known to dephosphorylate phosphopeptides. This assay is a fluorescence intensity based kinetic assay, taking advantage of a non-peptidyl substrate, 6,8-difluoro-4-methylumbelliferyl phosphate (DIFMUP). When excited at 358 nm, the dephosphorylated product of DIFMUP emits at 450 nm.
# Examples 1-5 (set forth below) were analyzed as follows. The assay was conducted in black 384-well non-treated plates (Costar#3710). The assay buffer contained 50 mM 3,3-dimethyl glutaric acid, pH 7.0, 48 mM NaCl, 1 mM EDTA. Inhibitors were prepared as DMSO solution and diluted to desired concentrations using 50 mM HEPES, pH 7.4. PTP-1B was diluted to a 2.5 nM working stock using the assay buffer containing additional 0.001% (w/v) hydrogenated Triton X-100. DIFMUP was diluted to 40 μM using the assay buffer. 5 μl of inhibitor was first dispensed into assay plate. In cases of control reactions, 5 μl of the assay buffer was dispensed. This was followed by 25 μl of DIFMUP working stock. The reaction was then initiated by the addition of 20 μl of PTP-1B working stock. The final DIFMUP concentration was 20 μM (˜1.6×Km). The final enzyme concentration was 1 nM and the detergent concentration was 0.0004% (w/v). Typical inhibitor concentrations were from 0.08 to 40 μM. The reaction progress was monitored continuously for 30 min.
# Calculations: For data analysis, the last five data points were used to obtain a slope corresponding to the estimated steady-state velocity (Vs), and the overall progress curves were used to obtain the average velocity (Va), by linear regression in both cases. The apparent final potency of inhibitor (Kiapp) was then calculated from Vs data, using the standard hyperbolic inhibition equation. The IC50 values were calculated from Va data using the sigmoidal inhibition equation. % inhibition values were calculated from Va values of inhibitor at 40 μM, and the average Va value of control reactions.
row,SMILES,inhibition at 40 µM
1,"COc1ccc2cc(C(=O)O)ccc2c1CNCc1ccc(N(C)C)cc1 [Example 4, 5-({[4-(Dimethylamino)benzyl]amino}methyl)-6-methoxy-2-naphthoic acid]",34%
2,"COc1ccc2cc(C(=O)O)ccc2c1CNCc1ccc(F)cc1 [Example 2, 5-{[(4-Fluorobenzyl)amino]methyl)-6-methoxy-2-naphthoic acid]",37%
3,"COc1ccc2cc(C(=O)O)ccc2c1CNCc1ccc(OC(F)(F)F)cc1 [Example 1, 6-Methoxy-5-({[4-(trifluoromethoxy)benzyl]amino}methyl)-2-naphthoic acid]",50%
4,"O=C(O)COc1ccc2cc(C(=O)O)ccc2c1CNCc1ccc(OC(F)(F)F)cc1 [Example 5, 6-(Carboxymethoxy)-5-({[4-(trifluoromethoxy)benzyl]amino}methyl)-2-naphthoic acid]",38%
5,"COc1ccc2cc(C(=O)O)ccc2c1CNCc1ccc(S(N)(=O)=O)cc1 [Example 3, 5-({[4-(Aminosulfonyl)benzyl]amino}methyl)-6-methoxy-2-naphthoic acid]",23%
